Common to all, as to type: biochemical
The target in one assay is T1, JAK3 (Homo sapiens, UniProt P52333).
T1 construct: All four purified enzymes contain only the catalytic domain; His (N); purchased Carna Biosciences, Inc; host or cells: baculovirus expression system
Briefly: JAK kinase assay (HTRF, phosphorylation of synthetic peptide), JAK3. Conditions: catalytic domain, ATP at Km (2 μM); read-out: JAK3 kinase inhibitory activity (EC50). Background: In TR-FRET formats the signal depends on donor and acceptor labels being close together.

The target in another assay is T2, JAK2 (Homo sapiens, UniProt O60674).
T2 construct: All four purified enzymes contain only the catalytic domain; His (N); purchased Carna Biosciences, Inc; host or cells: baculovirus expression system
Briefly: JAK kinase assay (HTRF, phosphorylation of synthetic peptide), JAK2. Conditions: catalytic domain, ATP at Km (4 μM); read-out: JAK2 kinase inhibitory activity (EC50). The method in brief:
(§1)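 Catalytic-domain human JAK1 (GST-tagged, aa 850-1154) or His-tagged JAK2, baculovirus-expressed, phosphorylated 1 µM biotinylated TK peptide at Km ATP (JAK1 7 µM, 10 mM MgCl2, 50 nM SEB; JAK2 4 µM, 5 mM MgCl2) in pH 7.0 Hepes, 20-30 min RT. EDTA stop; overnight streptavidin-XL665/cryptate HTRF read.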

Another assay concerns the target T3, TYK2 (Homo sapiens, UniProt P29597).
T3 construct: JAK1 (aa 850-1154) and TYK2 (aa 871-1187) are expressed with an N-terminally fused GST-tag; GST (N); purchased Carna Biosciences, Inc; host or cells: baculovirus expression system
T3 sequence (P29597 871-1187): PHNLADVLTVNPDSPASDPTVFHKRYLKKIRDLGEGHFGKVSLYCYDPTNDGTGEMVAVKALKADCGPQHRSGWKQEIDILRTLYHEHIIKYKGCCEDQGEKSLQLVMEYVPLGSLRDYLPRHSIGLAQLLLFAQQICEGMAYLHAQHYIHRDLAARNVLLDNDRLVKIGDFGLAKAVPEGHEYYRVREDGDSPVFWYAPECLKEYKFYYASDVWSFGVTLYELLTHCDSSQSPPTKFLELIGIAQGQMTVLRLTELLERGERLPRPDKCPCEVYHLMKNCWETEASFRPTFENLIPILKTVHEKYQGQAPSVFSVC
Description: JAK kinase assay (HTRF, phosphorylation of synthetic peptide), TYK2. Conditions: catalytic domain, ATP at Km (13 μM); read-out: TYK2 kinase inhibitory activity (EC50). In short, it runs like this:
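1 µM biotinylated TK peptide at Km ATP in pH 7.0 Hepes, 20-30 min RT. EDTA stop; overnight streptavidin-XL665/cryptate HTRF read.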

A further assay concerns the target T4, JAK1 (Homo sapiens, UniProt P23458).
T4 construct: JAK1 (aa 850-1154) and TYK2 (aa 871-1187) are expressed with an N-terminally fused GST-tag; GST (N); purchased Carna Biosciences, Inc; host or cells: baculovirus expression system
Description: JAK kinase assay (HTRF, phosphorylation of synthetic peptide), JAK1. Conditions: catalytic domain, ATP at Km (7 μM); read-out: JAK1 kinase inhibitory activity (EC50). The method in brief:
as §1

What is called EC50 is the concentration that produces a half-maximal response.

T1 sequence (P52333 822-1111 limits assumed): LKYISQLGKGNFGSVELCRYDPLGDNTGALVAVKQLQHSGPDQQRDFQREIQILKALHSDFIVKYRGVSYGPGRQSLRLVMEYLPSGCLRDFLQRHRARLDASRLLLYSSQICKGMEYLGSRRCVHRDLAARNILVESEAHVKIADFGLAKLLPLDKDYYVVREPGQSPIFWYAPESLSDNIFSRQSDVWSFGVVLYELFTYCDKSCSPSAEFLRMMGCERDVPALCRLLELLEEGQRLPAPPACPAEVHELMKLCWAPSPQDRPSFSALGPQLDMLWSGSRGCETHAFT
T4 sequence (P23458 850-1154): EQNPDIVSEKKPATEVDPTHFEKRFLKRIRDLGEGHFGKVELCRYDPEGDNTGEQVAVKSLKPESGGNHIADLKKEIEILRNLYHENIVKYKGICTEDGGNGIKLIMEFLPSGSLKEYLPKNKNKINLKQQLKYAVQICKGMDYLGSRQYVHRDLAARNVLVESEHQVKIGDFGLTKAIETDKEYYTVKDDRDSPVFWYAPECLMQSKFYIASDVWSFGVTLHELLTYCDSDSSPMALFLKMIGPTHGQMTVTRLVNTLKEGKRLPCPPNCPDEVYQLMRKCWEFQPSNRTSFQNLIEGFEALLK
T2 sequence (O60674 849-1124 limits assumed): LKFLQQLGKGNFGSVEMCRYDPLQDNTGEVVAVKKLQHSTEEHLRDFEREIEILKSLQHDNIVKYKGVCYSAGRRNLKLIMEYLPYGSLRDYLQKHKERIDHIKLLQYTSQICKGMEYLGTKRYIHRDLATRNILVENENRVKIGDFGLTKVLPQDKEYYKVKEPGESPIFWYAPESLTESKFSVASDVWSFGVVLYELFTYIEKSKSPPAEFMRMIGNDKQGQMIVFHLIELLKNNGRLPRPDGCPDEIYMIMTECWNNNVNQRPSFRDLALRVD

Regarding `CN(C[C@H]1CCCN1C(=O)CCO)S(=O)(=O)N1CCN(c2ncnc3[nH]ccc23)CC12CC2` [Example 190, N-[[(2R)-1-(3-hydroxypropanoyl)pyrrolidin-2-yl]methyl]-N-methyl-5-(7H-pyrrolo[2,3-d]pyrimidin-4-yl)-5,8-diazaspiro[2.5]octane-8-sulfonamide], the concentration giving a half-maximal response (EC50) is 100 to 500 nM at JAK3, below 100 nM at JAK2, 100 to 500 nM on TYK2 and below 100 nM on JAK1.
As to `CN(CC1CCS(=O)(=O)C1)S(=O)(=O)N1CCN(c2ncnc3[nH]ccc23)CC12CC2` (centres unmarked) [Example 165, N-[(1,1-dioxothiolan-3-yl)methyl]-N-methyl-5-(7H-pyrrolo[2,3-d]pyrimidin-4-yl)-5,8-diazaspiro[2.5]octane-8-sulfonamide], the EC50 on JAK3 is below 100 nM; on JAK2 it was below 100 nM; at TYK2, 100 to 500 nM; on JAK1 it was below 100 nM.
As to `CN(C[C@@H]1CCCN1S(C)(=O)=O)S(=O)(=O)N1CCN(c2ncnc3[nH]ccc23)CC12CC2` [Example 194, N-methyl-N-[[(2S)-1-methylsulfonylpyrrolidin-2-yl]methyl]-5-(7H-pyrrolo[2,3-d]pyrimidin-4-yl)-5,8-diazaspiro[2.5]octane-8-sulfonamide], the half-maximal effective concentration (EC50) at JAK3 was below 100 nM; at JAK2, below 100 nM; at TYK2, 100 to 500 nM; at JAK1, below 100 nM.
In the case of `CN(C[C@H]1CCCN1C(=O)CCC#N)S(=O)(=O)N1CCN(c2ncnc3[nH]ccc23)CC12CC2` [Example 187, N-[[(2R)-1-(3-cyanopropanoyl)pyrrolidin-2-yl]methyl]-N-methyl-5-(7H-pyrrolo[2,3-d]pyrimidin-4-yl)-5,8-diazaspiro[2.5]octane-8-sulfonamide], the EC50 at JAK3 was 100 to 500 nM; on JAK2, below 100 nM; on TYK2, 100 to 500 nM; on JAK1, below 100 nM.
For `N#CCCN(CC#N)S(=O)(=O)N1CCN(c2ncnc3[nH]ccc23)CC12CC2` [Example 171, N-(2-cyanoethyl)-N-(cyanomethyl)-5-(7H-pyrrolo[2,3-d]pyrimidin-4-yl)-5,8-diazaspiro[2.5]octane-8-sulfonamide], the EC50 at JAK3, at JAK2, at TYK2 and on JAK1 was below 100 nM each time.
For the compound `CC(C)N(CCO)S(=O)(=O)N1CCN(c2ncnc3[nH]ccc23)CC12CC2` [Example 97, N-(2-hydroxyethyl)-N-isopropyl-5-(7H-pyrrolo[2,3-d]pyrimidin-4-yl)-5,8-diazaspiro[2.5]octane-8-sulfonamide], the concentration for a half-maximal effect (EC50) on JAK3 is 100 to 500 nM; at JAK2, below 100 nM; on TYK2, above 500 nM; at JAK1 it was below 100 nM.
For the compound `CN(CC1CCN(C(=O)CCC#N)CC1)S(=O)(=O)N1CCN(c2ncnc3[nH]ccc23)CC12CC2` [Example 152, N-[[1-(3-cyanopropanoyl)-4-piperidyl]methyl]-N-methyl-5-(7H-pyrrolo[2,3-d]pyrimidin-4-yl)-5,8-diazaspiro[2.5]octane-8-sulfonamide], the concentration for a half-maximal effect (EC50) at JAK3 is 100 to 500 nM; on JAK2, below 100 nM; on TYK2, above 500 nM; at JAK1, below 100 nM.
Regarding `CN(CC1CC1)S(=O)(=O)N1CCN(c2ncnc3[nH]ccc23)CC12CC2` [Example 59, N-(cyclopropylmethyl)-N-methyl-5-(7H-pyrrolo[2,3-d]pyrimidin-4-yl)-5,8-diazaspiro[2.5]octane-8-sulfonamide], the 50% effective concentration (EC50) on JAK3, at JAK2, on TYK2 and on JAK1 was below 100 nM in each case.
With `CN(C[C@H]1CCCN1C(=O)CO)S(=O)(=O)N1CCN(c2ncnc3[nH]ccc23)CC12CC2` [Example 185, N-[[(2R)-1-(2-hydroxyacetyl)pyrrolidin-2-yl]methyl]-N-methyl-5-(7H-pyrrolo[2,3-d]pyrimidin-4-yl)-5,8-diazaspiro[2.5]octane-8-sulfonamide], the EC50 at JAK3, on JAK2, on TYK2 and on JAK1 was below 100 nM in each case.
Consider `CCCS(=O)(=O)N1CCC(CN(C)S(=O)(=O)N2CCN(c3ncnc4[nH]ccc34)CC23CC3)C1` (centres unmarked) [Example 118, N-methyl-N-[(1-propylsulfonylpyrrolidin-3-yl)methyl]-5-(7H-pyrrolo[2,3-d]pyrimidin-4-yl)-5,8-diazaspiro[2.5]octane-8-sulfonamide], for which the EC50 is below 100 nM at JAK3, below 100 nM at JAK2, 100 to 500 nM at TYK2 and below 100 nM on JAK1.
For the compound `O=S(=O)(N(CCO)CCc1ccccc1)N1CCN(c2ncnc3[nH]ccc23)CC12CC2` [Example 25, 7-(7H-Pyrrolo[2,3-d]pyrimidin-4-yl)-4,7-diaza-spiro[2.5]octane-4-sulfonic acid (2-hydroxy-ethyl)-phenethyl-amide], the concentration giving a half-maximal response (EC50) on JAK3, at JAK2, at TYK2 and on JAK1 was below 100 nM throughout.
As to `CN(C[C@@H]1CC(F)(F)CN1S(=O)(=O)CCCC#N)S(=O)(=O)N1CCN(c2ncnc3[nH]ccc23)CC12CC2` [Example 163, N-[[(2S)-1-(3-cyanopropylsulfonyl)-4,4-difluoro-pyrrolidin-2-yl]methyl]-N-methyl-5-(7H-pyrrolo[2,3-d]pyrimidin-4-yl)-5,8-diazaspiro[2.5]octane-8-sulfonamide], the concentration giving a half-maximal response (EC50) at JAK3, on JAK2, at TYK2 and on JAK1 was below 100 nM throughout.
`CC(C#N)N(C1CCC1)S(=O)(=O)N1CCN(c2ncnc3[nH]ccc23)CC12CC2` (centres unmarked) [Example 107, N-(1-cyanoethyl)-N-cyclobutyl-5-(7H-pyrrolo[2,3-d]pyrimidin-4-yl)-5,8-diazaspiro[2.5]octane-8-sulfonamide]: the EC50 was below 100 nM at JAK3, below 100 nM on JAK2, 100 to 500 nM at TYK2 and below 100 nM at JAK1.
Consider `CN(C)S(=O)(=O)N1CCN(c2ncnc3[nH]ccc23)CC12CC2` [Example 45, 7-(7H-Pyrrolo[2,3-d]pyrimidin-4-yl)-4,7-diaza-spiro[2.5]octane-4-sulfonic acid dimethylamide], for which the half-maximal effective concentration (EC50) at JAK3 is below 100 nM; on JAK2, below 100 nM; at TYK2 it was 100 to 500 nM; on JAK1 it was below 100 nM.
For `CN(Cc1ccc(S(N)(=O)=O)cc1)S(=O)(=O)N1CCN(c2ncnc3[nH]ccc23)CC12CC2` [Example 91, N-methyl-5-(7H-pyrrolo[2,3-d]pyrimidin-4-yl)-N-[(4-sulfamoylphenyl)methyl]-5,8-diazaspiro[2.5]octane-8-sulfonamide], the EC50 at JAK3, at JAK2, on TYK2 and on JAK1 was below 100 nM in each case.
As to `NS(=O)(=O)N1CCN(c2ncnc3[nH]ccc23)CC12CC2` [Int 1], the EC50 on JAK3 is below 100 nM; on JAK2, below 100 nM; at TYK2, 100 to 500 nM; on JAK1, below 100 nM.
In the case of `O=S1(=O)CCC(CN(CCO)S(=O)(=O)N2CCN(c3ncnc4[nH]ccc34)CC23CC3)CC1` [Example 170, N-[(1,1-dioxothian-4-yl)methyl]-N-(2-hydroxyethyl)-5-(7H-pyrrolo[2,3-d]pyrimidin-4-yl)-5,8-diazaspiro[2.5]octane-8-sulfonamide], the half-maximal effective concentration (EC50) at JAK3, at JAK2, at TYK2 and on JAK1 was below 100 nM each time.
As for `O=S1(=O)CCC(CNS(=O)(=O)N2CCN(c3ncnc4[nH]ccc34)CC23CC3)C1` (centres unmarked) [Int 37], the EC50 at JAK3 is below 100 nM; at JAK2 it was below 100 nM; at TYK2, above 500 nM; at JAK1 it was below 100 nM.
As to `CN(CC1CCN(S(=O)(=O)CC2CC2)C1)S(=O)(=O)N1CCN(c2ncnc3[nH]ccc23)CC12CC2` (centres unmarked) [Example 122, N-[[1-(cyclopropylmethylsulfonyl)pyrrolidin-3-yl]methyl]-N-methyl-5-(7H-pyrrolo[2,3-d]pyrimidin-4-yl)-5,8-diazaspiro[2.5]octane-8-sulfonamide], the EC50 at JAK3 was below 100 nM; on JAK2, below 100 nM; at TYK2, 100 to 500 nM; on JAK1, below 100 nM.
`CNS(=O)(=O)N1CCN(c2ncnc3[nH]ccc23)CC12CC2` [Int 3]: the EC50 was below 100 nM on JAK3, below 100 nM at JAK2, 100 to 500 nM on TYK2 and below 100 nM at JAK1.

The values are drawn from US9233964B2, “Sulfamide piperazine derivatives as protein tyrosine kinase inhibitors and pharmaceutical use therof” (LEO PHARMA A/S, priority 2011, dated 2016).
